Article PMC4774911, “Biochemical Screening of Five Protein Kinases from Plasmodium falciparum against 14,000 Cell-Active Compounds” (PLoS ONE, 2016)
Where two headings read alike, the source gives them in different places.

Tests used:
[1] = molecular target: T1, Plasmodium falciparum calcium-dependent protein kinase 1 (CDPK1) (Plasmodium falciparum, UniProt P62344); experiment: CDPK1 Kinase-Glo ATP-consumption screen and dose-response; type: biochemical; conditions: hits below 1 uM; read-out: CDPK1 IC50
T1 construct: 6-Histidine (N); made in house
Procedure, shortened: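 ATP consumption by recombinant P. falciparum CDPK4 or CDPK1 measured as residual ATP by Kinase-Glo luminescence, with 40 μM Syntide-2 substrate and 90 min incubation stopped with 5 mM EGTA. Single-point screen at 1 μM final, followed by dose-response; no-substrate wells as negative control.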

[2] = molecular target: T2, Plasmodium falciparum protein kinase 6 (PK6) (Plasmodium falciparum, UniProt Q8IDW1); experiment: biochemical; conditions: hits below 1 uM; read-out: PK6 IC50
T2 construct: 6-Histidine (N); made in house
T2 sequence (Q8IDW1 1-305): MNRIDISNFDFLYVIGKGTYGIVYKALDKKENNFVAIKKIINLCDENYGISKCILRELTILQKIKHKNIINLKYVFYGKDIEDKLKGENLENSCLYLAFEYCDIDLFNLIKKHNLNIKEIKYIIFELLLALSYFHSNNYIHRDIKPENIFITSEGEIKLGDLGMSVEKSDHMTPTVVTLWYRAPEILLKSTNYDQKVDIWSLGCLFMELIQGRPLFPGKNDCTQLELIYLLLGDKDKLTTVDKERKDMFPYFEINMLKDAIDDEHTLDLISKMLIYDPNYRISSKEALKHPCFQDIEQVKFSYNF

HepG2 cells = conditions: cited from earlier work
P. falciparum 3D7 cells = conditions: 3D7, cited from earlier work
DD2 [3] = test system: DD2; design: method as in downloaded from ChEMBL; conditions: ref downloaded from ChEMBL; cited from earlier work
3D7 PFLDH [4] = test system: 3D7 PFLDH; design: method as in downloaded from ChEMBL; conditions: ref downloaded from ChEMBL; cited from earlier work
PKG = PKG (Plasmodium falciparum, UniProt Q8I719); experiment: PKG IC50 (supplementary data file); type: biochemical
Source text: Supplement pone.0149996.s003.xls, sheet "combined_1_sorted"

DD2 [5] = test system: DD2; design: method as in F.J. Gamo et al., Nature 2010; conditions: downloaded from ChEMBL, ref F.J. Gamo et al., Nature 2010; cited from earlier work
3D7 PFLDH [6] = test system: 3D7 PFLDH; design: method as in F.J. Gamo et al., Nature 2010; concentration or dose not given beside the values; conditions: downloaded from ChEMBL, ref F.J. Gamo et al., Nature 2010; cited from earlier work
[7] = HEPG2, ref downloaded from ChEMBL
[8] = downloaded from ChEMBL, ref F.J. Gamo et al., Nature 2010

T1 sequence (P62344 whole entry): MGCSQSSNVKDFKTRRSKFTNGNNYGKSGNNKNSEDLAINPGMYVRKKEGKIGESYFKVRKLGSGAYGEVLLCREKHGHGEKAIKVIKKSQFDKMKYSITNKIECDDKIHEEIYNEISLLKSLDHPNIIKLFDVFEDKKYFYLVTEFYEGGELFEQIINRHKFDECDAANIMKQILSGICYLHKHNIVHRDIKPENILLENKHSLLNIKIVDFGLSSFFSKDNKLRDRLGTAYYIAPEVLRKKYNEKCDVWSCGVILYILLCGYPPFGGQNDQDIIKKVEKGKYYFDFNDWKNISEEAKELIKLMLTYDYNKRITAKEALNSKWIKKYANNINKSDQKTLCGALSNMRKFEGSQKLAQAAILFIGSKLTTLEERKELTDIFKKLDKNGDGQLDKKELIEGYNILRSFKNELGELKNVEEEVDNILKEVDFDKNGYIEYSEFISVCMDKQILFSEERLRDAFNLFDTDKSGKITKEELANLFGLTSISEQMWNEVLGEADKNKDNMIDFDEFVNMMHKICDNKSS
Chain of PKG (Q8I719 whole entry): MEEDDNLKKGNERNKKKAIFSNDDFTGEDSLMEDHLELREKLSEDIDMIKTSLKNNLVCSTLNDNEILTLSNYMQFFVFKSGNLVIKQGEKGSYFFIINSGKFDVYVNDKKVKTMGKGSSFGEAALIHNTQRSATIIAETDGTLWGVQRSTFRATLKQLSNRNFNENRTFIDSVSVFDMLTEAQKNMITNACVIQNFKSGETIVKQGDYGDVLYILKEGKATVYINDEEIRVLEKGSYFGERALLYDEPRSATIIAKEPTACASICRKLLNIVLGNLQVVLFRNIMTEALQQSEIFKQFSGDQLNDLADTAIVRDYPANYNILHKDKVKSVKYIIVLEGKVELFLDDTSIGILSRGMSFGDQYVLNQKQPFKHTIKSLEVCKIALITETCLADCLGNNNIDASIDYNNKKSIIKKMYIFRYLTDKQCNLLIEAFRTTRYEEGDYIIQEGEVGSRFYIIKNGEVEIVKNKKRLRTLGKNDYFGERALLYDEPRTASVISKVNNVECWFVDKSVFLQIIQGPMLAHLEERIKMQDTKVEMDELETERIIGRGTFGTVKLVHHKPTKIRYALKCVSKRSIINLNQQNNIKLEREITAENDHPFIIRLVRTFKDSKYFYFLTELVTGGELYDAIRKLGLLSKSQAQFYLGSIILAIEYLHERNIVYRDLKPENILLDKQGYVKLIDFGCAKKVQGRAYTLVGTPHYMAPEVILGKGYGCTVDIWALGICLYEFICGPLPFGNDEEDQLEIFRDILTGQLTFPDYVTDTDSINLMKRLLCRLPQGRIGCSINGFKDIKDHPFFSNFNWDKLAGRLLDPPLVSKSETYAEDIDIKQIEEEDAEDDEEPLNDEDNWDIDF

Row | IC50 [1] [nM] | IC50 (PKG) [µM] | Structure (SMILES) | IC50 [2] [nM] | PCT_INHIB_HEPG2 (HepG2 cells; [7]) | PCT_IHB_3D7 (P. falciparum 3D7 cells; ref downloaded from ChEMBL) | pXC50_3D7 (P. falciparum 3D7 cells; ref downloaded from ChEMBL) | PCT_INHB_DD2 (DD2 [3]) | PCT_INHIB_3D7_PFLDH (3D7 PFLDH [4]) | PCT_INHIB_HEPG2 (HepG2 cells; HepG2, downloaded from ChEMBL, ref F.J. Gamo et al., Nature 2010) [%] | PCT_IHB_3D7 (P. falciparum 3D7 cells; [8]) [%] | pXC50_3D7 (P. falciparum 3D7 cells; [8]) | PCT_INHB_DD2 (DD2 [5]) [%] | PCT_INHIB_3D7_PFLDH (3D7 PFLDH [6]) [%]
1 | 887 | – | CN(C)CCNCc1nc(-c2ccc3c(Nc4ccc(Oc5ccccc5)cc4)ccnc3c2)cs1 [TCMDC-138410] | – | 8 | 100 | 6.1332 | 100 | 6 | – | – | – | – | –
2 | 436 | – | COCCNCc1cccc(-c2ccc3c(Nc4cc(O)c(Cl)cc4F)ccnc3c2)c1 [TCMDC-138429] | – | 0 | 100 | 6.944 | 79 | 7 | – | – | – | – | –
3 | 762 | – | CN1CCN(Cc2cccc(-c3ccc4c(Nc5cc(O)c(Cl)cc5F)ccnc4c3)c2)CC1 [TCMDC-138430] | – | 0 | 100 | 6.114 | 100 | 4 | – | – | – | – | –
4 | 71 | – | CS(=O)(=O)CCNCc1cccc(-c2ccc3c(Nc4cc(O)c(Cl)cc4F)ccnc3c2)c1 [TCMDC-138435] | – | 9 | 100 | 6.595 | 100 | 0 | – | – | – | – | –
5 | 150 | – | COCCNCc1ncsc1-c1ccc2c(Nc3cc(O)c(Cl)cc3F)ccnc2c1 [TCMDC-138441] | – | 0 | 100 | 6.262 | 92 | 0 | – | – | – | – | –
6 | 131 | – | CN1CCN(Cc2ccc(-c3ccc4c(Nc5cc(O)c(Cl)cc5F)ccnc4c3)o2)CC1 [TCMDC-138446] | – | 2 | 100 | 6.961 | 99 | 0 | – | – | – | – | –
7 | 125 | – | Cc1ccc(O)cc1Nc1ccnc2cc(-c3cccc(CNCCS(C)(=O)=O)c3)ccc12 [TCMDC-138472] | – | 9 | 99 | 6.078 | 100 | 2 | – | – | – | – | –
8 | 913 | – | COCCNCc1cccc(-c2ccc3c(Nc4ccc(Oc5cccnc5)cc4)ccnc3c2)c1 [TCMDC-138487] | – | 58 | 100 | 6.749 | 99 | 0 | – | – | – | – | –

Second part, the compound before the results:

Row | Structure (SMILES) | IC50 [1] [nM] | IC50 (PKG) [µM] | IC50 [2] [nM] | PCT_INHIB_HEPG2 (HepG2 cells; [7]) | PCT_IHB_3D7 (P. falciparum 3D7 cells; ref downloaded from ChEMBL) | pXC50_3D7 (P. falciparum 3D7 cells; ref downloaded from ChEMBL) | PCT_INHB_DD2 (DD2 [3]) | PCT_INHIB_3D7_PFLDH (3D7 PFLDH [4]) | PCT_INHIB_HEPG2 (HepG2 cells; HepG2, downloaded from ChEMBL, ref F.J. Gamo et al., Nature 2010) [%] | PCT_IHB_3D7 (P. falciparum 3D7 cells; [8]) [%] | pXC50_3D7 (P. falciparum 3D7 cells; [8]) | PCT_INHB_DD2 (DD2 [5]) [%] | PCT_INHIB_3D7_PFLDH (3D7 PFLDH [6]) [%]
9 | NCCNC(=O)c1ccc(-c2cnc3[nH]cc(-c4ccc(C(N)=O)cc4)c3c2)cc1 [TCMDC-132359] | 24 | – | 931 | 2 | 99 | 6.7676 | 98 | 0 | – | – | – | – | –
10 | NCCNS(=O)(=O)c1ccc(-c2ccnc3[nH]c(-c4ccncc4)cc23)cc1.O=C(O)C(F)(F)F [TCMDC-133364] | 422 | – | 207 | 0 | 96 | 6.076 | 95 | 3 | – | – | – | – | –
11 | Cn1cc(-c2ccnc3[nH]c(-c4cccc(CNC5CCC(O)CC5)c4)cc23)cn1.O=C(O)C(F)(F)F (stereo not shown) [TCMDC-133805] | 46 | – | 177 | 48 | 95 | 6.044 | 82 | 2 | – | – | – | – | –
12 | CN(C)Cc1cccc(-c2cc3c(-c4cnn(C)c4)c(Cl)cnc3[nH]2)c1 [TCMDC-134147] | 402 | – | 128 | 75 | 96 | 6.043 | 21 | 0 | – | – | – | – | –
13 | COc1c(CN2CCOCC2)cccc1-c1cc2c(-c3ccc(C(=O)O)c(C(C)C)c3)ccnc2[nH]1.O=C(O)C(F)(F)F [TCMDC-135049] | – | – | 695 | 44 | 98 | 6.1293 | 90 | 0 | – | – | – | – | –
14 | COc1c(CN2CCCC2)cccc1-c1cc2c(-c3ccc(C(=O)O)c(C(C)C)c3)ccnc2[nH]1.O=C(O)C(F)(F)F [TCMDC-135050] | – | – | 541 | 56 | 99 | 6.357 | 98 | 0 | – | – | – | – | –
15 | NS(=O)(=O)c1ccc(Nc2nccc(-c3c(-c4cccc(NC(=O)c5c(F)cccc5F)c4)nn4ccccc34)n2)cc1 [TCMDC-135528] | 48 | – | 140 | 83 | 93 | 6.118 | 89 | 0 | – | – | – | – | –
16 | O=C(NC1CC1)c1ccc(Nc2nccc(-c3c(-c4cccc(NC(=O)c5c(F)cccc5F)c4)nn4ccccc34)n2)cc1 [TCMDC-136002] | 26 | > 10 | – | 84 | 94 | 6.386 | 96 | 0 | – | – | – | – | –
17 | Cl.NCCCOc1cnc(-c2ccccc2)c2nc(-c3nonc3N)n(CCc3ccccc3)c12 [TCMDC-136216] | 47 | > 10 | – | – | – | – | – | – | 56 | 93 | 5.895 | 86 | 0
18 | CN(C)Cc1ccc(-c2ccc3c(Nc4ccc(Oc5ccccn5)cc4)ccnc3c2)o1 [TCMDC-138425] | 513 | – | – | 18 | 100 | 6.798 | 100 | 1 | – | – | – | – | –
19 | COCCNCc1cccc(-c2ccc3c(Nc4ccc(Oc5ccccc5)cc4)ccnc3c2)c1 [TCMDC-138478] | 979 | – | – | 25 | 100 | 6.287 | 99 | 2 | – | – | – | – | –
20 | CS(=O)(=O)CCNCc1cccc(-c2ccc3c(Nc4ccc(Oc5cccnc5)cc4)ccnc3c2)c1 [TCMDC-138488] | 966 | – | – | 27 | 100 | 6.847 | 99 | 4 | – | – | – | – | –
21 | c1cncc(Oc2ccc(Nc3ccnc4cc(-c5cccc(CNCCN6CCOCC6)c5)ccc34)cc2)c1 [TCMDC-138492] | 705 | – | – | 14 | 100 | 6.952 | 99 | 4 | – | – | – | – | –
22 | CN(C)CCNCc1cccc(-c2ccc3c(Nc4ccc(Oc5ccccn5)cc4)ccnc3c2)c1 [TCMDC-138493] | 845 | – | – | 27 | 99 | 6.633 | 100 | 2 | – | – | – | – | –
